Test results: ChEMBL document CHEMBL5107953, “SAR study of 4-arylazo-3,5-diamino-1H-pyrazoles: identification of small molecules that induce dispersal of Pseudomonas aeruginosa biofilms” (2021)

These molecules were tested on Pseudomonas aeruginosa (assay: Anti-biofilm activity against Pseudomonas aeruginosa PAO1 harboring wspF gene mutation assessed as reduction on c-di-GMP level by measuring GFP fluorescence at 100 uM incubated for 24 hrs […]).
Assay type: functional
Parameters: scale not given: the % may be the effect or the level left
For `N=C1NN=C(N)/C1=N/Nc1c(F)ccc(F)c1F`, the Activity was 61%. Molecule `N=C1NN=C(N)/C1=N/Nc1cc(Br)ccc1F` has an Activity of 0%. In the case of `N=C1/C(=N\Nc2ccccc2F)C(N)=NN1c1ccc(F)cc1`, the Activity is reported as 0%. Molecule `O=C1NOC(=O)/C1=N\Nc1ccccc1F` has an Activity of 0%. Work on `N=C1/C(=N\Nc2ccccc2F)C(N)=NN1c1ccc(S(N)(=O)=O)cc1` yielded an Activity of 0%. `N=C1NN=C(N)/C1=N/Nc1cccc(O)c1` gave an Activity of 0%. In the case of `N=C1NN=C(N)/C1=N/Nc1ccccc1O`, the Activity is reported as 55%. Molecule `N=C1NN=C(N)/C1=N/Nc1cc(Br)cc(Br)c1` has an Activity of 0%. With `N=C1NN=C(N)/C1=N/Nc1cc(F)cc(F)c1` the Activity was 35%. `N=C1NN=C(N)C1c1ccc2ccccc2n1` (stereo unspecified) showed an Activity of 0%. `N=C1/C(=N\Nc2ccccc2F)C(N)=NN1S(=O)(=O)c1ccc(N)cc1` gave an Activity of 0%. Work on `N=C1NN=C(N)/C1=N/Nc1ccccc1I` yielded an Activity of 0%. `N=C1NN=C(N)/C1=N/Nc1cc(F)ccc1F` gave an Activity of 65%. In the case of `N=C1NN=C(N)/C1=N/Nc1ccc(F)cc1`, the Activity is reported as 44%. With `NC1=NNC(=O)/C1=N\Nc1ccccc1F` the Activity was 0%. In the case of `N=C1/C(=N\Nc2ccccc2F)C(N)=NN1c1ccc(C(=O)O)cc1`, the Activity is reported as 0%. `N=C1NN=C(N)/C1=N/Nc1c(F)cc(F)cc1F` showed an Activity of 30%. In the case of `O=C1NNC(=O)C1=NNc1ccccc1F`, the Activity is reported as 0%. Molecule `Cc1ccc(N/N=C2\C(=N)NN=C2N)c(F)c1` has an Activity of 0%. `N=C1NN=C(N)/C1=N/Nc1c(Br)cccc1Br` showed an Activity of 0%. With `N=C1/C(=N\Nc2ccccc2F)C(N)=NN1S(=O)(=O)c1ccccc1` the Activity was 0%. Work on `N=C1NN=C(N)/C1=N/Nc1ccc(F)c(F)c1F` yielded an Activity of 0%. In the case of `NC1=NOC(=O)/C1=N\Nc1ccccc1F`, the Activity is reported as 0%. `N=C1NN=C(N)/C1=N/Nc1cccc(F)c1` showed an Activity of 73%. In the case of `N=C1NN=C(N)/C1=N/Nc1cccnc1F`, the Activity is reported as 13%. Work on `N=C1ONC(=O)/C1=N\Nc1ccccc1F` yielded an Activity of 0%. With `N=C1ON=C(N)/C1=N/Nc1ccccc1O` the Activity was 0%. `CC(=O)NC1=NN(C(C)=O)C(=N)/C1=N\Nc1ccccc1F` showed an Activity of 0%. `N=C1NN=C(N)/C1=N/Nc1ccccc1C(F)(F)F` showed an Activity of 0%. For `Cc1cccc(F)c1N/N=C1\C(=N)NN=C1N`, the Activity was 0%. With `N=C1/C(=N\Nc2ccccc2F)C(N)=NN1C(=O)c1ccccc1` the Activity was 0%. `N=C1/C(=N\Nc2ccccc2F)C(N)=NN1C(=O)c1ccncc1` gave an Activity of 40%. `N=C1NN=C(N)/C1=N/Nc1cc(F)ccc1Br` showed an Activity of 0%. In the case of `N=C1NN=C(N)/C1=N/Nc1ccccc1F`, the Activity is reported as 83%. `N=C1ON=C(N)/C1=N/Nc1c(O)cccc1F` showed an Activity of 0%. Molecule `N=C1NN=C(N)/C1=N/Nc1c(F)cccc1Br` has an Activity of 0%. `N=C1NN=C(N)/C1=N/Nc1cc(Br)ccc1Br` gave an Activity of 0%. `N=C1NN=C(N)/C1=N/Nc1ccccc1Br` was tested, and the Activity was 0%. `COc1ccc(NN=C2C(N)=NN=C2N)cc1` showed an Activity of 0%. `N=C1NN=C(N)/C1=N/Nc1c(F)cccc1F` showed an Activity of 77%. `N=C1NN=C(N)/C1=N/Nc1ccc(F)cc1F` showed an Activity of 41%. For `COc1ccccc1N/N=C1\C(=N)NN=C1N`, the Activity was 0%. `N=C1NN=C(N)/C1=N/Nc1cccc(F)c1F` showed an Activity of 48%. `N=C1NN=C(N)/C1=N/Nc1ccccc1N` showed an Activity of 0%. For `N=C1NN=C(N)/C1=N/Nc1c(O)cccc1F`, the Activity was 75%. `N=C1NN=C(N)/C1=N/Nc1c(O)cccc1O` was tested, and the Activity was 15%. Work on `N=C1ON=C(N)/C1=N/Nc1c(F)cccc1F` yielded an Activity of 0%. For `N=C1NN=C(N)/C1=N/Nc1ccccc1Cl`, the Activity was 0%. For `N=C1NN=C(N)/C1=N/Nc1ccccc1`, the Activity was 71%. For `N=C1/C(=N\Nc2ccccc2F)C(N)=NN1CCO`, the Activity was 0%. For `N=C1NN=C(N)/C1=N/Nc1ccncc1F`, the Activity was 0%. `N=C1/C(=N\Nc2ccccc2F)C(N)=NN1Cc1ccccc1` gave an Activity of 0%. `N=C1ON=C(N)/C1=N/Nc1ccccc1F` was tested, and the Activity was 0%. For `NNc1ccccc1F`, the Activity was 0%. `CC(=O)/N=C1\NN=C(NC(C)=O)\C1=N\Nc1ccccc1F` showed an Activity of 0%. With `N=C1ON=C(N)/C1=N/Nc1cc(F)ccc1F` the Activity was 0%.
